“Also recorded” adds a separate entry of the source. Read-outs that look alike come from different tables or passages of the source.
How the values were obtained:
[1] = Neutral Red cell viability assay on JEG-Tox cells, 72 h; assay type: cell-based, human; conditions: human
Description: (§1) The JEG-3 human trophoblast cell line, derived from a human placental carcinoma, was obtained from the American Type Culture Collection (ATCC HTB-36). Cells were cultured in minimum Essential medium, supplemented with 10% fetal bovine serum (FBS), 1% L-glutamine, 0.5% penicillin and streptomycinin, in 75 cm2 polystyrene flasks. Cell cultures were maintained in a cell culture incubator (37° C., saturated humidity, 5% CO2). When the JEG-3 cells reached subconfluency, they were detached using trypsin-EDTA and counted. The cellular suspension was diluted and seeded either in 96-well microplates at a cellular density of 80,000 cells/mL or in 6-well microplates at 120,000 cells/mL, then kept at 37° C. for 24 h. The cells were incubated with EDCs according to example 1.
(§2) Cell viability was evaluated using the Neutral Red assay. The Neutral Red solution at 0.4% (m/v in water) was diluted in cell culture medium to obtain a working concentration of 50 μg/mL. […] The cells were then rinsed with PBS and lysed with a solution of acetic acid-ethanol (ethanol 50.6%, water 48.4% and acetic acid 1%). After homogenization, the fluorescence signal was scanned (λexc=540 nm, λem=600 nm) with a Tecan Spark microplate reader (Mannedorf, Switzerland). The cell viability was calculated compared to the control cells (the fluorescence of the control cells as 100% viability).

[2] = test system: JEG-Tox cells; experiment: as above; assay type: cell-based, human; conditions: 72 h
Description: as §1, §2

[3] = test system: caspase-9; experiment: Caspase 9 activity, Caspase-Glo 9 Assay; assay type: cell-based, human; conditions: 10 μM
Description: Caspase 9 activity was evaluated using the Caspase-Glo® 9 Assay kit. The assay was performed according to the manufacturer's instructions. Luminescence was quantified with a Spark microplate reader.

[4] = test system: caspase-1; experiment: Caspase 1 activity, Caspase-Glo 1 Inflammasome Assay; assay type: cell-based, human; conditions: 72 h; for Casp-1 activation (concentration): Table 4 summary; for caspase-1 activity compared to control: highest concentration tested
Description: Caspase 1 activity was evaluated using the Caspase-Glo® 1 1 Inflammasome Assay kit. The assay was performed according to the manufacturer's instructions. Luminescence was quantified with a Spark microplate reader.
Caspase 1 activity was evaluated using the Caspase-Glo®1 Inflammasome Assay kit. The assay was performed according to the manufacturer's instructions. Luminescence was quantified with a Spark microplate reader.

[5] = biological target: T1, P2X7 receptor (Homo sapiens, UniProt Q99572); assay type: cell-based; conditions: 72 h; for P2X7 receptor activation (in words): JEG-Tox; for P2X7 activation (concentration): Table 4 summary
T1 construct: P2X7 receptor is expressed by human placenta and JEG-Tox; endogenous in cells; host or cells: JEG-3 human trophoblast cell line (ATCC HTB-36) cultured in 2.5% FBS (JEG-Tox)
T1 sequence (Q99572 1-595): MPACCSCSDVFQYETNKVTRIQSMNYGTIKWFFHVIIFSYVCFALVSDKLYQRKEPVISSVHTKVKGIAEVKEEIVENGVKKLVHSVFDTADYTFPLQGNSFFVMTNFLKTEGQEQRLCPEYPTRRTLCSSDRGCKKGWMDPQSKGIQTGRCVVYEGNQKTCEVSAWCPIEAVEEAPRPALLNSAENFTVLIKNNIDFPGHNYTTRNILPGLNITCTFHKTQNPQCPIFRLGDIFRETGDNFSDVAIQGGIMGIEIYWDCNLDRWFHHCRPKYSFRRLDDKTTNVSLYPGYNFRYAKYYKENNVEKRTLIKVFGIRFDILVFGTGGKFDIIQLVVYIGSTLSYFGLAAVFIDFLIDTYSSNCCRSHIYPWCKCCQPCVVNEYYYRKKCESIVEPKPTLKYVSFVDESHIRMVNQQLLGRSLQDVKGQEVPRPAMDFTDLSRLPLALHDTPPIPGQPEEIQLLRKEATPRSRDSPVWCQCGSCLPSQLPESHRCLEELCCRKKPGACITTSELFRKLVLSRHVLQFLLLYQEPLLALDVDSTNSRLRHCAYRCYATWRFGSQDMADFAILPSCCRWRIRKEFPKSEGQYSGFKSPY
Description: P2X7 cell death receptor activation was evaluated using the YO-PRO-1® assay (Rat et al. J Biol Methods. 2017 Jan. 20; 4(1):e64). YO-PRO-1® probe only enters into cells after P2X7 receptor activation-induced pore opening, and binds to DNA, emitting fluorescence. A 1 mM YO-PRO-1 stock solution was diluted at 1/500 in PBS just before use and distributed into the wells of the microplate. After a 10-minute incubation time at room temperature, fluorescence signal was read (λex=491 nm, λem=509 nm) with a Spark cytofluorometer.
P2X7 cell death receptor activation was evaluated using the YO-PRO-1® assay (Rat et al., 2017). YO-PRO-1® probe only enters into cells after P2X7 receptor activation-induced pore opening, and binds to DNA, emitting fluorescence. A 1 mM YO-PRO-1 stock solution was diluted at 1/500 in PBS just before use and distributed into the wells of the microplate. After a 10-minute incubation time at room temperature, fluorescence signal was read (λex=485 nm, λem=531 nm) with a Spark cytofluorometer.

[6] = test system: JEG-3 cells; experiment: Neutral red cell viability of JEG-3 cells with SLS or PFOA in 10% or 2.5% FBS; conditions: for living cells: 2.5% FBS
Description: The choriocarcinoma-derived JEG-3 cell-line (ATCC® HTB-36™, Manassas, VA, USA), was grown as recommended by ATCC: Minimum Essential Medium Eagle's medium supplemented with 10% fetal bovine serum, 2 mM of glutamine, 50 IU/mL of penicillin and 50 IU/mL of streptomycin. Cells were detached using trypsin, counted, and then seeded at 80,000 cells/mL in 96-well microplates (200 μL by well) and Nunc® Lab-Tek® II Chamber Slide™ system for immunostaining.
Cells were incubated with sodium lauryl sulfate or perfluorooctanoic acid diluted in culture medium supplemented with either 2.5% or 10% FBS. After 24 hours, cell viability was evaluated using the neutral red assay. Neutral Red solution at 0.4% in water was diluted in culture medium with a ratio of 1:79 to give a final concentration of 50 μg/mL. Neutral Red was distributed in the plates for a 3-hour incubation time at 37° C. The cells were then rinsed with PBS to remove any remaining unincorporated dye. The dye was then released from the cells using a lysis solution (1% acetic acid, 50% ethanol and 49% H2O) and the fluorescence was measured (λex=540 nm, λem=600 nm) using Spark microplate fluorometer (Tecan, Mannedorf, Switzerland).

[7] = test system: JEG-Tox cells; experiment: Chromatin condensation (Hoechst 33342) as a hallmark of apoptosis; assay type: cell-based, human; conditions: 24 h
Description: The UV fluorescent probe Hoechst 33342 enters living and apoptotic cells, intercalating into DNA. The fluorescent signal is proportional to chromatin condensation in apoptosis. The cells were incubated with Hoechst 33342 at 10 μg/mL for 30 minutes at room temperature. The fluorescence signal was read (λex=360 nm, λem=460 nm) using a cytofluorometer (Spark).

[8] = Table 4 summary, loss of viability >= 30% counted as cytotoxic
[9] = JEG-Tox cells, 50 μM, 72 h, read-out: cell viability

Row | Structure (SMILES) | cytotoxicity (concentration) [2, 8] | effect on caspase-1 activity [4] | Casp-1 activation (concentration) [4] | P2X7 receptor activation compared to control ([5]; 10 μM) | P2X7 receptor activation (in words) [5] | P2X7 activation (concentration) [5] | concentration at which chromatin condensation was initiated [7] | further results
1 | CCCCOC(=O)c1ccccc1C(=O)OCc1ccccc1 [benzyl butyl phthalate] | 50 µM | no effect | no | 1.36 fold change | triggered P2X7 receptor activation | 0.1 to 10 µM |  | viability at 72 h, 50 µM ([1]; 50 μM, 72 h, read-out: cell viability): 40%; caspase-9 activity compared to control [3]: 1.28 fold change
2 | CCCCCCCCCCCCOS(=O)(=O)[O-].[Na+] [SLS, sodium lauryl sulfate] |  |  |  |  |  |  |  | living cells ([6]; 30 μg/mL, 24 h): 37%; living cells ([6]; 50 μg/mL, 24 h): 10%; effect on JEG-3 cell viability ([6]; 10% FBS, all tested concentrations (up to 50 μg/mL), 24 h, sulfate): no effect; also recorded: did not observe any cell death; concentration inducing a dramatic loss of cell viability ([6]; diluted in 2.5% FBS): 30000 ng/mL
3 | CCCCOC(=O)c1ccccc1C(=O)OCCCC [dibutyl phthalate] |  | no effect | no | 1.6 fold change | triggered P2X7 receptor activation | 0.01 to 50 µM |  | viability at 72 h, 50 µM [1]: 55%; cytotoxicity (concentration) ([2]; human): 50 µM
4 | OCCOc1ccccc1 [phenoxyethanol] |  |  |  |  |  |  | 0.15% | 
5 | Clc1ccc(C(c2ccc(Cl)cc2)C(Cl)(Cl)Cl)cc1 [4,4′DDT] |  |  |  |  |  |  | 2 µg/mL | 
6 | CC/C(=C(/CC)c1ccc(O)cc1)c1ccc(O)cc1 [diethylstilbestrol] | 15 µM | activated caspase-1 | 7.5 µM |  | triggered P2X7 receptor activation | 7.5 µM |  | viability at 72 h, 15 µM ([1]; JEG-Tox cells, 15 μM, 72 h): 40%; caspase-1 activity compared to control [4]: 1.84 fold change; P2X7 receptor activation compared to control ([5]; 7.5 μM): 1.48 fold change
7 | CCOP(=S)(OCC)Oc1cnc2ccccc2n1 [quinalphos] |  |  |  |  |  |  | 0.3 µg/mL | 
8 | CC12CCC(/C(=C/c3ccccc3)C1=O)C2(C)C (stereo not drawn) [3-benzylidene camphor] | 50 µM | no effect | no | 1.50 fold change | triggered P2X7 receptor activation | 1 to 10 µM |  | viability at 72 h, 50 µM [1, 9]: 70%
9 | CCCCC(CC)COC(=O)c1ccccc1C(=O)OCC(CC)CCCC (stereo not drawn) [DEHP, Di(2-ethylhexyl)phtalate] | 50 µM | no effect | no | 1.16 fold change | triggered P2X7 receptor activation | 10 µM |  | viability at 72 h, 50 µM [1, 9]: 25%; caspase-9 activity compared to control [3]: 1.20 fold change
10 | Oc1cc(Cl)ccc1Oc1ccc(Cl)cc1Cl [triclosan] | 10 µM | no effect | No |  | triggered P2X7 receptor activation | 1 µM |  | viability at 72 h, 10 µM ([1]; JEG-Tox cells, 10 μM, 72 h): 60%; P2X7 receptor activation compared to control ([5]; 1 μM): 1.13 fold change
11 | CCCOC(=O)c1ccc(O)cc1 [propylparaben] |  | activated caspase-1 | 100 µM |  | triggered P2X7 receptor activation | 1 to 100 µM | 20 µg/mL | viability at 72 h, 100 µM [1]: 87%; caspase-1 activity compared to control [4]: 2.7 fold change; P2X7 receptor activation compared to control ([5]; 100 μM): 1.69 fold change
12 | CCC(C)(C)c1ccc(O)cc1 [4-tert-amylphenol] | no | activated caspase-1 | 50 µM |  | triggered P2X7 receptor activation | 0.1 to 50 µM |  | concentration up to which no loss of cell viability was observed [2]: up to 50 μM; caspase-1 activity compared to control [4]: 1.5 fold change; P2X7 receptor activation compared to control ([5]; 50 μM): 1.36 fold change
13 | CCO [ethanol] |  |  |  |  |  |  | 2.5% | 
